{
  "source": "patent US11279707B2",
  "about": "“NEK inhibitors and methods of use” (DANA-FARBER CANCER INSTITUTE, INC., priority 2017, dated 2022)",
  "type_in_all_cases": "biochemical",
  "key": {"NEK9": {"target": "T1, NEK9 (Homo sapiens, UniProt Q8TD19)", "T1 sequence (Q8TD19 1-979)": "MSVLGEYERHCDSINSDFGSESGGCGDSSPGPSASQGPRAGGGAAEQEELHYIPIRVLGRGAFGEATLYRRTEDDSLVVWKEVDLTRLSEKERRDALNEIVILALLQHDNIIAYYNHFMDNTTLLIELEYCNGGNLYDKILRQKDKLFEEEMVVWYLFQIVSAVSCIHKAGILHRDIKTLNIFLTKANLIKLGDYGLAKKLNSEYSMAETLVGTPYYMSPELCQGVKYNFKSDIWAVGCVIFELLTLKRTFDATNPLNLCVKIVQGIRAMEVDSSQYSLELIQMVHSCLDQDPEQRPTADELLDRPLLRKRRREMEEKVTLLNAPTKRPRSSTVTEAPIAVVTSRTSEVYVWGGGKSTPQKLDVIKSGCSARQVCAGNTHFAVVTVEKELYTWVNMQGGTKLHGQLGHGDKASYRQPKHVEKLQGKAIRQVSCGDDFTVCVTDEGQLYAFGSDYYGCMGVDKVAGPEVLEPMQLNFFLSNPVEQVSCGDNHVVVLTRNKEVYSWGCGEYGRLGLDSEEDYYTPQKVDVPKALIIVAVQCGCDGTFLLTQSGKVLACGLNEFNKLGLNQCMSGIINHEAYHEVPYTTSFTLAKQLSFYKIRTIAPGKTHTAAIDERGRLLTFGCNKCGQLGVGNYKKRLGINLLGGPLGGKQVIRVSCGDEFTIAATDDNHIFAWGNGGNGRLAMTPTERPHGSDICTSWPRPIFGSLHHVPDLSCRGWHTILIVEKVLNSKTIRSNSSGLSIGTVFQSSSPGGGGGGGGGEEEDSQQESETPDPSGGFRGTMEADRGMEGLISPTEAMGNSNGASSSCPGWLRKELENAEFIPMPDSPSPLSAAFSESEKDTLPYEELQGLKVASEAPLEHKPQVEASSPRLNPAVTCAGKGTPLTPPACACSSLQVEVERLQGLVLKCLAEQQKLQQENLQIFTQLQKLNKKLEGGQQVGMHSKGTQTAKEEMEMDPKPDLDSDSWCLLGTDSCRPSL", "assay": "kinase inhibition, NEK9"}, "NEK7": {"target": "NEK7 (Homo sapiens, UniProt Q8TDX7)", "sequence (Q8TDX7 whole entry, species assumed)": "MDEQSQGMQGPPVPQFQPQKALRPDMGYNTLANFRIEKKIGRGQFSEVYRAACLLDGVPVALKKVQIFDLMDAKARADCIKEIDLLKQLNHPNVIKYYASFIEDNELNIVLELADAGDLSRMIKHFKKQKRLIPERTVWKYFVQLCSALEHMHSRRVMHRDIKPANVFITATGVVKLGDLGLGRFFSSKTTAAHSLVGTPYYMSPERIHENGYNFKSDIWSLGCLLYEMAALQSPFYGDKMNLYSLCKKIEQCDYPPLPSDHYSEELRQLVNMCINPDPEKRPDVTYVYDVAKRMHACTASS", "assay": "kinase inhibition, NEK7"}, "MERTK": {"target": "T2, MERTK (Homo sapiens, UniProt Q12866)", "T2 sequence (Q12866 21-999)": "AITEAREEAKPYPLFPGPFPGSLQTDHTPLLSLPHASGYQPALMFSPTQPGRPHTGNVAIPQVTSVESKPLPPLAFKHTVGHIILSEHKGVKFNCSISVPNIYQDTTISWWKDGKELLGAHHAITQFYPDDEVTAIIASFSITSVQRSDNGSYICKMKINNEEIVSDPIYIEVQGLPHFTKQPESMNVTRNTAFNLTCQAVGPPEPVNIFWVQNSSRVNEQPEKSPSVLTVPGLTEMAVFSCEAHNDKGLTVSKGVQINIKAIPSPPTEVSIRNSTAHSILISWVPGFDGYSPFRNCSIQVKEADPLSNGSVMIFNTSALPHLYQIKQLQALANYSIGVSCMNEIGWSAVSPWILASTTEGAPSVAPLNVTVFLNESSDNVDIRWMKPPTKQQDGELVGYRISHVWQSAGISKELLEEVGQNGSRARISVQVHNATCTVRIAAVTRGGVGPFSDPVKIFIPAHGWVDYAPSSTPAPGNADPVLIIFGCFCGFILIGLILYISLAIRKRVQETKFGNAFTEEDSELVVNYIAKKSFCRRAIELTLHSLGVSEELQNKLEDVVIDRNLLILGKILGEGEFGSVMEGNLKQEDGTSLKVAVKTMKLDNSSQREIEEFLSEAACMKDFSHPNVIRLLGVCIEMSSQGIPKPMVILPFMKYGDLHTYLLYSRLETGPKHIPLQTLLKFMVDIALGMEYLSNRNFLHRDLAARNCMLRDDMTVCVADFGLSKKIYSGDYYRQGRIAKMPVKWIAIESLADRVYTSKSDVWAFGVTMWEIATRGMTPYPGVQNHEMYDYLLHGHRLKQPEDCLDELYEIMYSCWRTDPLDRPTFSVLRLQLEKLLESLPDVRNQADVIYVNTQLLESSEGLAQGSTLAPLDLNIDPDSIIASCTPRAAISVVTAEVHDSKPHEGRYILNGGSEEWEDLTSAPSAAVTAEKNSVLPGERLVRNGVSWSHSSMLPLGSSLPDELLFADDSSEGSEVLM", "assay": "kinase inhibition, MERTK"}, "NEK2": {"target": "T3, NEK2 (Homo sapiens, UniProt P51955)", "T3 sequence (P51955 1-445)": "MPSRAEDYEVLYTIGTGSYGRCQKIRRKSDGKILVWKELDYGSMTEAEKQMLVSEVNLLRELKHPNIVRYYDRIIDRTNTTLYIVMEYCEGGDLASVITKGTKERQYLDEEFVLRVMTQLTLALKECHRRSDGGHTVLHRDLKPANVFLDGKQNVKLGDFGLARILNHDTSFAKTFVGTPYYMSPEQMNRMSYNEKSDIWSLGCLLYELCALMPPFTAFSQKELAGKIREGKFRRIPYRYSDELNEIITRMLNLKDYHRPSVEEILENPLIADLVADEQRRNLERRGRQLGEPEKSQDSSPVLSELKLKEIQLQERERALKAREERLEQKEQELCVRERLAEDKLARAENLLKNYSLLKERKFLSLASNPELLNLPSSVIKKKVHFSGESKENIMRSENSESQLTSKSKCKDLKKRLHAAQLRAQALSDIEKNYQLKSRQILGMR", "assay": "kinase inhibition, NEK2"}, "NEK6": {"target": "NEK6 (Homo sapiens, UniProt Q9HC98)", "sequence (Q9HC98 whole entry, species assumed)": "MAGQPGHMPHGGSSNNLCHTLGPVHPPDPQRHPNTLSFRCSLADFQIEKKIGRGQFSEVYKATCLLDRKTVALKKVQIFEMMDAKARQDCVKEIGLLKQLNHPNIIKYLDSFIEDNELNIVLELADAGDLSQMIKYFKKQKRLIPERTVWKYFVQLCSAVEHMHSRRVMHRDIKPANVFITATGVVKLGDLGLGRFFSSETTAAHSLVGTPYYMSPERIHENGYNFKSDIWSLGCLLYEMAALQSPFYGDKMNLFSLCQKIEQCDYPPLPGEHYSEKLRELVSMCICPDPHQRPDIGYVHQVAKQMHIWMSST", "assay": "kinase inhibition, NEK6"}, "AXL": {"target": "T4, AXL (Homo sapiens, UniProt P30530)", "T4 sequence (P30530 26-894)": "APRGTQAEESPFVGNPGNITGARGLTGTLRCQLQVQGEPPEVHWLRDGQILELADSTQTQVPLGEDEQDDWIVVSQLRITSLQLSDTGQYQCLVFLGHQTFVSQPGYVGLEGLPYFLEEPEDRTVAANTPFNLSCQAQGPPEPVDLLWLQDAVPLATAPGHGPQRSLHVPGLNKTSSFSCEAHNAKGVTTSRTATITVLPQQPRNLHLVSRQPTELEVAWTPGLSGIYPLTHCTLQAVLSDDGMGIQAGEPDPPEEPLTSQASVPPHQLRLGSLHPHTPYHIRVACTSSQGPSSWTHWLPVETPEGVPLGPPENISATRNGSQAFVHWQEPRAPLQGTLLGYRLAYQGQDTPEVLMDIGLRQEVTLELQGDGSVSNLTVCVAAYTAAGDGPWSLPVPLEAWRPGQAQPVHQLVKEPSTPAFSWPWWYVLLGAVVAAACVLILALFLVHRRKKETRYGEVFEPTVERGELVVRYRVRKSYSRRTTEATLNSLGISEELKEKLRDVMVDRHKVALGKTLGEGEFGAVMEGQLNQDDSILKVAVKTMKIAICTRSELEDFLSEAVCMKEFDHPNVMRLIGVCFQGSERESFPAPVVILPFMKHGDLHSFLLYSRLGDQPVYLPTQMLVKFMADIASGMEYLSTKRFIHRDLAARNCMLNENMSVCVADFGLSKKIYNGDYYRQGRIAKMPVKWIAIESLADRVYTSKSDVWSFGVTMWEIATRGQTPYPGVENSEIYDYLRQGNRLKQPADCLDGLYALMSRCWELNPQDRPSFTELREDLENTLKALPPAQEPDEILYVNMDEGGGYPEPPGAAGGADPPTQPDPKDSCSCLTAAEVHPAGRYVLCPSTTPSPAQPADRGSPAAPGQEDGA", "assay": "kinase inhibition, AXL"}, "CLK": {"target": "CLK", "assay": "kinase inhibition, CLK"}, "RSK1": {"target": "RSK1 (Homo sapiens, UniProt Q15418)", "sequence (Q15418 whole entry, species assumed)": "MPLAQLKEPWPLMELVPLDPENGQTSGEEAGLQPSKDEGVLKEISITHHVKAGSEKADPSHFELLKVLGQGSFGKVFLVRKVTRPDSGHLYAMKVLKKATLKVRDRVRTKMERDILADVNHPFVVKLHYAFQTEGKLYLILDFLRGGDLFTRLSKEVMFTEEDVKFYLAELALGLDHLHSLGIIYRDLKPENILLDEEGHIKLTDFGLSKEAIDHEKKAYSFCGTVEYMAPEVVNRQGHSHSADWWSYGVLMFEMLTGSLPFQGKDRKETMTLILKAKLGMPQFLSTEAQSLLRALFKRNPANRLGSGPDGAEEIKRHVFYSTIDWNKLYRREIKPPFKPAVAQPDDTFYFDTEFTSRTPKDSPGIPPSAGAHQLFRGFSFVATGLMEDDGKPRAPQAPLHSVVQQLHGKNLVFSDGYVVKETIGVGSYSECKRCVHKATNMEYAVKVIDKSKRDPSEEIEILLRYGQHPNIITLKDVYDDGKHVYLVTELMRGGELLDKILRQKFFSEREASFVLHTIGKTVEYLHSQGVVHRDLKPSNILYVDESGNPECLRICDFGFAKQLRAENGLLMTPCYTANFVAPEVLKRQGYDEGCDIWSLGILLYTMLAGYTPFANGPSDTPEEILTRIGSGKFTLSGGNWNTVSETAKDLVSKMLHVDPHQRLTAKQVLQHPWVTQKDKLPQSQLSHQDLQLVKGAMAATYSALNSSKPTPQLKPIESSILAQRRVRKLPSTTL", "assay": "kinase inhibition, RSK1"}, "GSK3B": {"target": "GSK3B (Homo sapiens, UniProt P49841)", "sequence (P49841 whole entry, species assumed)": "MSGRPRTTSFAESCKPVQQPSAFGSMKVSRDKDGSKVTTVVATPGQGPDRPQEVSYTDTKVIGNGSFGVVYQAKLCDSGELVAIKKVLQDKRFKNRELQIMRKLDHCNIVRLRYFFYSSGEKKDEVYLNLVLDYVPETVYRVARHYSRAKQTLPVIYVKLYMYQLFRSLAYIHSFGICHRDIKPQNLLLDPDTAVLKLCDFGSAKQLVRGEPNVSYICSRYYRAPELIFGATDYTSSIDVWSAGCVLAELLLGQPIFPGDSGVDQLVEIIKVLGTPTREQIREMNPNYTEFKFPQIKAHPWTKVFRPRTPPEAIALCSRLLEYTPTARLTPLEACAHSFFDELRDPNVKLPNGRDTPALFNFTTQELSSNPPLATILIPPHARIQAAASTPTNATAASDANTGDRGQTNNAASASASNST", "assay": "kinase inhibition, GSK3B"}},
  "data": [
    {"smiles": "CN1CCN(c2ccc(Nc3ncc4c(n3)N3c5ccccc5CC3C(=O)N4C)cc2)CC1", "note": "(stereo not drawn) [Compound I-7]", "values": [
      {"measurement": "IC50", "setting": "NEK9", "value": "≤ 50", "unit": "nM"},
      {"measurement": "IC50", "setting": "NEK7", "value": "250 to 1000", "unit": "nM"},
      {"measurement": "IC50", "setting": "MERTK", "value": "250 to 1000", "unit": "nM"},
      {"measurement": "IC50", "setting": "NEK2", "value": "50 to 250", "unit": "nM"},
      {"measurement": "IC50", "setting": "NEK6", "value": "1000 to 5000", "unit": "nM"},
      {"measurement": "IC50", "setting": "AXL", "value": "250 to 1000", "unit": "nM"},
      {"measurement": "IC50", "setting": "CLK", "value": "50 to 250", "unit": "nM"},
      {"measurement": "IC50", "setting": "RSK1", "value": "250 to 1000", "unit": "nM"},
      {"measurement": "IC50", "setting": "GSK3B", "value": "250 to 1000", "unit": "nM"}
    ]}
  ]
}
